# Test results published in ChEMBL document CHEMBL1201862, “PubChem BioAssay data set” (2004).
#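 Cells were grown in 96-well plates and exposed to each compound for 48 hours at five concentrations; endpoints were interpolated linearly between bracketing concentrations, or set to the highest concentration if not reached. GI50 = concentration required for 50% inhibition of growth.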 Active and inactive are the calls of the source. Rule as the data show it: active = GI50 up to about 1.1 µM and inactive = higher.
# Experiments:
# Experiment in all cases: NCI tumour cell line growth inhibition, 48 h
# NCI/ADR-RES = tested on: NCI/ADR-RES
# OVCAR-3 = tested on: OVCAR-3
# DU-145 = tested on: DU-145
# KM12 = tested on: KM12
# NCI-H460 = tested on: NCI-H460
# RXF 393 = tested on: RXF 393
# BT-549 = tested on: BT-549
# MOLT-4 = tested on: MOLT-4
# PC-3 = tested on: PC-3
# MDA-MB-231 = tested on: MDA-MB-231
# M14 = tested on: M14
# HOP-62 = tested on: HOP-62
# HL-60 = tested on: HL-60
# SF-268 = tested on: SF-268
# TK-10 = tested on: TK-10
# COLO 205 = tested on: COLO 205
# Hs-578T = tested on: Hs-578T
# HT-29 = tested on: HT-29
# ACHN = tested on: ACHN
# OVCAR-4 = tested on: OVCAR-4
# Malme-3M = tested on: Malme-3M
# SF-295 = tested on: SF-295
# UACC-257 = tested on: UACC-257
# RPMI-8226 = tested on: RPMI-8226
# MDA-MB-435 = tested on: MDA-MB-435
# NCI-H522 = tested on: NCI-H522
# HCT-116 = tested on: HCT-116
# NCI-H23 = tested on: NCI-H23
# A549 = tested on: A549
# SK-MEL-2 = tested on: SK-MEL-2
# OVCAR-5 = tested on: OVCAR-5
# MDA-N = tested on: MDA-N
# HOP-92 = tested on: HOP-92
# MCF7 = tested on: MCF7
# IGROV-1 = tested on: IGROV-1
# OVCAR-8 = tested on: OVCAR-8
# U-251 = tested on: U-251
# 786-0 = tested on: 786-0
# SN12C = tested on: SN12C
# SK-OV-3 = tested on: SK-OV-3
# CAKI-1 = tested on: CAKI-1
# LOX IMVI = tested on: LOX IMVI
# SK-MEL-28 = tested on: SK-MEL-28
# SK-MEL-5 = tested on: SK-MEL-5
# HCT-15 = tested on: HCT-15
# UACC-62 = tested on: UACC-62
# A498 = tested on: A498
# SNB-19 = tested on: SNB-19
# T47D = tested on: T47D
# SF-539 = tested on: SF-539
# SW-620 = tested on: SW-620
# EKVX = tested on: EKVX
# CCRF-CEM = tested on: CCRF-CEM
# K562 = tested on: K562
# NCI-H226 = tested on: NCI-H226
# SR = tested on: SR
# SNB-75 = tested on: SNB-75
# HCC 2998 = tested on: HCC 2998
# UO-31 = tested on: UO-31
structure (smiles),measurement,setting,value
CC(C)(C)OC(=O)N1C(=O)OC[C@@H]2C=C[C@@H]21,GI50,NCI/ADR-RES,> 100 µM (inactive)
same,GI50,OVCAR-3,> 100 µM (inactive)
same,GI50,DU-145,> 100 µM (inactive)
same,GI50,KM12,> 100 µM (inactive)
same,GI50,NCI-H460,> 100 µM (inactive)
same,GI50,RXF 393,> 100 µM (inactive)
same,GI50,BT-549,> 100 µM (inactive)
same,GI50,MOLT-4,> 100 µM (inactive)
same,GI50,PC-3,> 100 µM (inactive)
same,GI50,MDA-MB-231,> 100 µM (inactive)
same,GI50,M14,> 100 µM (inactive)
same,GI50,HOP-62,> 100 µM (inactive)
same,GI50,HL-60,> 100 µM (inactive)
same,GI50,SF-268,> 100 µM (inactive)
same,GI50,TK-10,> 100 µM (inactive)
same,GI50,COLO 205,> 100 µM (inactive)
same,GI50,Hs-578T,> 100 µM (inactive)
same,GI50,HT-29,> 100 µM (inactive)
same,GI50,ACHN,> 100 µM (inactive)
same,GI50,OVCAR-4,> 100 µM (inactive)
same,GI50,Malme-3M,> 100 µM (inactive)
same,GI50,SF-295,> 100 µM (inactive)
same,GI50,UACC-257,> 100 µM (inactive)
same,GI50,RPMI-8226,> 100 µM (inactive)
same,GI50,MDA-MB-435,> 100 µM (inactive)
same,GI50,NCI-H522,> 100 µM (inactive)
same,GI50,HCT-116,> 100 µM (inactive)
same,GI50,NCI-H23,> 100 µM (inactive)
same,GI50,A549,> 100 µM (inactive)
same,GI50,SK-MEL-2,> 100 µM (inactive)
same,GI50,OVCAR-5,> 100 µM (inactive)
same,GI50,MDA-N,> 100 µM (inactive)
same,GI50,HOP-92,> 100 µM (inactive)
same,GI50,MCF7,> 100 µM (inactive)
same,GI50,IGROV-1,> 100 µM (inactive)
same,GI50,OVCAR-8,> 100 µM (inactive)
same,GI50,U-251,> 100 µM (inactive)
same,GI50,786-0,> 100 µM (inactive)
same,GI50,SN12C,> 100 µM (inactive)
same,GI50,SK-OV-3,> 100 µM (inactive)
same,GI50,CAKI-1,> 100 µM (inactive)
same,GI50,LOX IMVI,> 100 µM (inactive)
same,GI50,SK-MEL-28,> 100 µM (inactive)
same,GI50,SK-MEL-5,> 100 µM (inactive)
same,GI50,HCT-15,> 100 µM
same,GI50,UACC-62,> 100 µM (inactive)
same,GI50,A498,> 100 µM (inactive)
same,GI50,SNB-19,> 100 µM (inactive)
same,GI50,T47D,> 100 µM (inactive)
same,GI50,SF-539,> 100 µM (inactive)
same,GI50,SW-620,> 100 µM (inactive)
same,GI50,EKVX,> 100 µM (inactive)
same,GI50,CCRF-CEM,> 100 µM (inactive)
CCC1=C(C=O)c2cc3[nH]c(cc4nc(c5c6[nH]c(cc1n2)c(C)c6C(=O)C5C(=O)OC)C(CCC(=O)OC)C4C)c(C)c3CC (stereo unspecified),GI50,OVCAR-3,> 100 µM (inactive)
same,GI50,DU-145,> 100 µM (inactive)
same,GI50,KM12,> 100 µM (inactive)
same,GI50,NCI-H460,> 100 µM (inactive)
same,GI50,K562,> 100 µM (inactive)
same,GI50,RXF 393,> 100 µM (inactive)
same,GI50,BT-549,> 100 µM (inactive)
same,GI50,MOLT-4,> 100 µM (inactive)
same,GI50,PC-3,> 100 µM (inactive)
same,GI50,MDA-MB-231,> 100 µM (inactive)
same,GI50,M14,> 100 µM (inactive)
same,GI50,HOP-62,> 100 µM (inactive)
same,GI50,HL-60,> 100 µM (inactive)
same,GI50,SF-268,> 100 µM (inactive)
same,GI50,TK-10,> 100 µM (inactive)
same,GI50,COLO 205,> 100 µM (inactive)
same,GI50,NCI-H226,> 100 µM (inactive)
same,GI50,Hs-578T,88.1 µM (inactive)
same,GI50,SR,> 100 µM (inactive)
same,GI50,HT-29,> 100 µM (inactive)
same,GI50,ACHN,> 100 µM (inactive)
same,GI50,OVCAR-4,> 100 µM (inactive)
same,GI50,Malme-3M,> 100 µM (inactive)
same,GI50,SF-295,> 100 µM (inactive)
same,GI50,UACC-257,> 100 µM (inactive)
same,GI50,RPMI-8226,> 100 µM (inactive)
same,GI50,MDA-MB-435,> 100 µM (inactive)
same,GI50,NCI-H522,> 100 µM (inactive)
same,GI50,HCT-116,> 100 µM (inactive)
same,GI50,SNB-75,> 100 µM (inactive)
same,GI50,HCC 2998,> 100 µM (inactive)
same,GI50,NCI-H23,> 100 µM (inactive)
same,GI50,A549,> 100 µM (inactive)
same,GI50,SK-MEL-2,> 100 µM (inactive)
same,GI50,OVCAR-5,> 100 µM (inactive)
same,GI50,MDA-N,> 100 µM (inactive)
same,GI50,HOP-92,> 100 µM (inactive)
same,GI50,MCF7,> 100 µM (inactive)
same,GI50,IGROV-1,> 100 µM (inactive)
same,GI50,OVCAR-8,> 100 µM (inactive)
same,GI50,U-251,> 100 µM (inactive)
same,GI50,786-0,> 100 µM (inactive)
same,GI50,UO-31,> 100 µM (inactive)
same,GI50,SN12C,> 100 µM (inactive)
same,GI50,SK-OV-3,> 100 µM (inactive)
same,GI50,CAKI-1,> 100 µM (inactive)
same,GI50,LOX IMVI,> 100 µM (inactive)
same,GI50,SK-MEL-28,> 100 µM (inactive)
same,GI50,SK-MEL-5,> 100 µM (inactive)
same,GI50,HCT-15,> 100 µM
same,GI50,UACC-62,> 100 µM (inactive)
same,GI50,A498,> 100 µM (inactive)
same,GI50,SNB-19,> 100 µM (inactive)
same,GI50,T47D,> 100 µM (inactive)
same,GI50,SF-539,> 100 µM (inactive)
same,GI50,SW-620,> 100 µM (inactive)
same,GI50,EKVX,> 100 µM (inactive)
same,GI50,CCRF-CEM,> 100 µM (inactive)
CC(=O)Nc1c(C)cc2c(nc3n2CCC3O)c1[N+](=O)[O-] (stereo unspecified),GI50,NCI/ADR-RES,> 100 µM (inactive)
same,GI50,OVCAR-3,> 100 µM (inactive)
same,GI50,DU-145,> 100 µM (inactive)
same,GI50,KM12,> 100 µM (inactive)
same,GI50,NCI-H460,> 100 µM (inactive)
same,GI50,K562,> 100 µM (inactive)
same,GI50,BT-549,> 100 µM (inactive)
same,GI50,MOLT-4,> 100 µM (inactive)
same,GI50,PC-3,> 100 µM (inactive)
same,GI50,MDA-MB-231,> 100 µM (inactive)
same,GI50,M14,> 100 µM (inactive)
same,GI50,HL-60,> 100 µM (inactive)
same,GI50,SF-268,> 100 µM (inactive)
same,GI50,COLO 205,> 100 µM (inactive)
same,GI50,NCI-H226,> 100 µM (inactive)
same,GI50,Hs-578T,> 100 µM (inactive)
same,GI50,HT-29,> 100 µM (inactive)
same,GI50,ACHN,> 100 µM (inactive)
same,GI50,OVCAR-4,> 100 µM (inactive)
same,GI50,Malme-3M,> 100 µM (inactive)
same,GI50,SF-295,> 100 µM (inactive)
same,GI50,UACC-257,> 100 µM (inactive)
same,GI50,RPMI-8226,> 100 µM (inactive)
same,GI50,MDA-MB-435,> 100 µM (inactive)
same,GI50,NCI-H522,> 100 µM (inactive)
same,GI50,HCT-116,> 100 µM (inactive)
same,GI50,SNB-75,> 100 µM (inactive)
same,GI50,HCC 2998,> 100 µM (inactive)
same,GI50,NCI-H23,> 100 µM (inactive)
same,GI50,A549,> 100 µM (inactive)
same,GI50,SK-MEL-2,> 100 µM (inactive)
same,GI50,OVCAR-5,> 100 µM (inactive)
same,GI50,MDA-N,> 100 µM (inactive)
same,GI50,HOP-92,> 100 µM (inactive)
same,GI50,MCF7,> 100 µM (inactive)
same,GI50,IGROV-1,> 100 µM (inactive)
same,GI50,OVCAR-8,> 100 µM (inactive)
same,GI50,U-251,> 100 µM (inactive)
same,GI50,786-0,> 100 µM (inactive)
same,GI50,UO-31,> 100 µM (inactive)
same,GI50,SN12C,> 100 µM (inactive)
same,GI50,SK-OV-3,> 100 µM (inactive)
same,GI50,CAKI-1,> 100 µM (inactive)
same,GI50,LOX IMVI,> 100 µM (inactive)
same,GI50,SK-MEL-28,> 100 µM (inactive)
same,GI50,SK-MEL-5,> 100 µM (inactive)
same,GI50,HCT-15,> 100 µM
same,GI50,UACC-62,> 100 µM (inactive)
same,GI50,A498,> 100 µM (inactive)
same,GI50,SNB-19,> 100 µM (inactive)
same,GI50,T47D,> 100 µM (inactive)
same,GI50,SF-539,> 100 µM (inactive)
same,GI50,SW-620,> 100 µM (inactive)
same,GI50,EKVX,> 100 µM (inactive)
same,GI50,CCRF-CEM,> 100 µM (inactive)
